# Measured values: US20240351988A1, “ARYL HYDROCARBON RECEPTOR MODULATORS AND THEIR USE IN THE TREATMENT OF DISEASES AND DISORDERS” (Allianthera (Suzhou) Biopharmaceutical Co., Ltd., priority 2021, published 2024)
# Experiments:
# CT26 tumor cells = assay: Anti-tumor activity in mice bearing CT26 tumors; assay type: in vivo, BALB/C mouse; conditions: CT26, female BALB/C; compound 10 mg/kg orally 16 days; anti PD-1 10 mg/kg i.p. twice every week; FIG. 1
# Description: Female BALB/C mouse was inoculated subcutaneously on the right flank with CT26 tumor cells (3×10^5) in 0.1 ml of RPMI 1640 Medium without serum for tumor development. Mice were randomized into 4 groups according to body weight on Day 4 after inoculation. The tumor-bearing mice were treated with Vehicle, anti PD-1 antibody (RMP1-14, BioXCell Catalog No. BP0146), a AHR antagonist compound as disclosed herein and a combination therapy of a AHR antagonist compound as disclosed herein and the anti PD-1 (or established treatment). The AHR antagonist compound was dosed orally at for example 10 mg/kg alone or in combination with established treatment for 16 days. When the established treatment was PD-1 antibody, the antibody was administered via intraperitoneal injection at 10 mg/kg, twice every week.
# [1] = test system: AHR-regulated gene CYP1A1 in human monocytic U937 cell line; assay: AHR-regulated CYP1A1 expression in U937 cells (qPCR, kynurenic acid stimulated); assay type: cell-based; conditions: U-937, 200 μM KA, 16 hours, CYP1A1 vs GAPDH, read-out: Cyp ANATAG mode assay: IC50
# Description: To evaluate the AHR inhibitory activity of the test compounds, quantitative PCR analysis was used to determine expression level of the AHR-regulated gene CYP1A1 in a human monocytic U937 cell line upon stimulation of 200 μM kynurenic acid (KA) in the absence or presence of AHR inhibitor. U937 cells were seeded at a concentration of 5×10^5 cells/well in 200 μL of growth medium in 96-well cell culture microplates. CYP1A1 expression was induced with 200 μM KA (positive control) in the absence or presence of the test compounds for 16 hours. Human U937 cells were typically incubated with eight different concentrations of test compounds (typical dilution: […], 3.2 nM, 16 nM, 80 nM, 400 nM, 2 μM, 10 μM) and analyzed in duplicate on the same cell culture microplate. After stimulation, the media was removed, the cell RNA was isolated using RNeasy Mini Kit (Qiagen, 74104) and reverse-transcribed to cDNA using PrimeScript RT reagent Kit (Perfect Real Time) (TaKaRa, RR037A). Unstimulated cells were used as the negative control. Taqman probes for human CYP1A1 (Hs01054797_g1) and human GAPDH (Hs02786624_g1) were used to analyze fold expression of CYP1A1 of GAPDH.
# [2] = target: T1, Human Aryl Hydrocarbon Receptor (AhR) (Homo sapiens, UniProt P35869); assay: AHR antagonist reporter assay in human cell line (INDIGO AhR Reporter Assay System, kynurenic acid activated); assay type: cell-based; conditions: 200 μM kynurenic acid, 24 hours, luciferase; read-out: AhR Reporter Assay KA Antagonist Mode: IC50
# T1 construct: purchased INDIGO Bioscience #1B06001-32; host or cells: AhR Reporter Cell (kit's proprietary reporter cells)
# T1 sequence (P35869 11-848): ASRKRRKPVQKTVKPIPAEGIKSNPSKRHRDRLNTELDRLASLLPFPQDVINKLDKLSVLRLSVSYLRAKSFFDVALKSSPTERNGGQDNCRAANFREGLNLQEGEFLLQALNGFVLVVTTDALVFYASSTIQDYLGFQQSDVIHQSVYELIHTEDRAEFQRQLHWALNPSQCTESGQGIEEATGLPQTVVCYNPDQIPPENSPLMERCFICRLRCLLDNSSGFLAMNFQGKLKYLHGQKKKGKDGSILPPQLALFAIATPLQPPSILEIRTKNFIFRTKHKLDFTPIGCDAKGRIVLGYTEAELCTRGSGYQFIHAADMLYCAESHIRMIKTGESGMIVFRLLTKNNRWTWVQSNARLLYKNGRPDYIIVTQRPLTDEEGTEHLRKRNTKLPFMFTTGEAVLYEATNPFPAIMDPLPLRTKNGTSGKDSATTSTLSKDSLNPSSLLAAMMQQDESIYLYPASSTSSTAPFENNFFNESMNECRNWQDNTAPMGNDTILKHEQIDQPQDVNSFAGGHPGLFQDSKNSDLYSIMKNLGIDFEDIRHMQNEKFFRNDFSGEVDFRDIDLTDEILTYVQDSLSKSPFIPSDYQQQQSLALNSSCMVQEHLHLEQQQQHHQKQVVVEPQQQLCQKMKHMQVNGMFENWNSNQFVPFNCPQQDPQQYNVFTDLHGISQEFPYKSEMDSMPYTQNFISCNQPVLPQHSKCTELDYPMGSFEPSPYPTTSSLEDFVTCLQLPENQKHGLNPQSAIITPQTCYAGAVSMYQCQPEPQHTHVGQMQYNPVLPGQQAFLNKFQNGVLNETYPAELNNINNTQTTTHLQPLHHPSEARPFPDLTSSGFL
# Method in brief: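 AhR reporter cells activated with 200 μM kynurenic acid and exposed to compound dilution series in duplicate for 24 h. Firefly luciferase readout, normalized to positive (literature antagonists or unactivated cells) and negative controls.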
IC50 [1] [nM],IC50 [2] [nM],Compound,tumor volume compared with Vehicle group (CT26 tumor cells)
< 100,< 100,C[C@@H](CO)NC(=O)c1cc(-c2ccc(-c3ccc(F)cc3)nc2)nn(-c2cnn(C)c2)c1=O [example 184],significantly reduced tumor volume
100 to 400,< 100,CNC(=O)[C@H](C)NC(=O)c1cc(-c2cnc(-c3ccc(Cl)cc3)nc2)nn(-c2cnn(C)c2)c1=O [Compound 181],–
< 100,< 100,COCC(C)NC(=O)c1cc(-c2ccc(Cl)cc2)nn(-c2cnn(C)c2)c1=O (stereo not drawn) [Compound 32],–
100 to 400,< 100,Cc1nn(C)c2cc(-c3cc(C(=O)N[C@@H](C)CO)c(=O)n(-c4cnn(C)c4)n3)ccc12 [Compound 175],–
100 to 400,< 100,CN(C)C(=O)C(C)(C)NC(=O)c1cc(-c2ccc(OC(F)(F)F)cc2)nn(-c2cnn(C)c2)c1=O [Compound 168],–
< 100,< 100,COC[C@H](C)NC(=O)c1cc(-c2cc3ccccc3cn2)nn(-c2cnn(C)c2)c1=O [Compound 153],–
< 100,< 100,CNC(=O)C(C)(C)NC(=O)c1cc(-c2ccc(C(F)(F)F)cc2)nn(-c2cnn(C)c2)c1=O [Compound 173],–
< 100,< 100,C[C@@H](CO)NC(=O)c1cc(-c2cnc(-c3ccc(Cl)cc3)nc2)nn(-c2cnn(C)c2)c1=O [Compound 163],–
< 100,< 100,C[C@@H](CO)NC(=O)c1cc(N2CCN(c3ccc(F)cc3)CC2)nn(-c2cnn(C)c2)c1=O [Compound 208],–
< 100,< 100,C[C@H](NC(=O)c1cc(-c2ccc(Cl)cc2)nn(-c2cccc(F)c2)c1=O)C(=O)N(C)C [Compound 99],–
